Experimental data published in patent EP3720857B1, “2-OXO-5H-CHROMENO[4,3-B]PYRIDINES FOR USE IN THE TREATMENT OF HEPATITIS B” (Galapagos NV, priority 2017, dated 2019).

system: hepatitis virus B (HBV) infection; test: HepG2 NTCP assay (HBcAg staining as marker of HBV infection); format: cell-based; details: HepG2-NTCP cells infected with HBV, HBV core antigen (HBcAg) as marker of infection
Excerpt: The principle of the hepG2-NTCP assay is to measure the effect of a test compound on the inhibition of the hepatitis virus B (HBV) infection compared to a reference compound. To be able to infect the hepatocellular carcinoma cells (HepG2) with HBV, HepG2 cells were stably transfected with the Na+-taurocholate co-transporting polypeptide (NTCP) receptor, also referred to as Sodium/bile acid cotransporter (SLC10A1), which is necessary for HBV infection. In this assay the HBV core antigen (HBcAg) is used as a marker of HBV infection. Nuclei count is used as an indication for compound toxicity.
On day one, HepG2-NTCP cells ((Ni et al., 2014)) are seeded at 5000 cells in 50 µL per well in assay medium (DMEM high glucose supplemented with 10% non-heat inactivated (non HI) fetal bovine serum (FBS), 1% P/S, 1% L-glutamine and 1% MEM NEAA) in 384 well plate and incubated at 37°C, 5% CO2 overnight.
Compounds are prepared as 10 point serial dilutions using 1/3 dilution steps in 100% DMSO starting from 10 mM highest concentration, unless otherwise requested for very potent compounds, which started from 5mM or 1mM stock. Compounds are further diluted 1/500 in assay medium.
A negative control (vehicle: 24 wells with 0.2% DMSO) and positive control (24 wells with 100nM Myrcludex B (Cas no.: 406461-66-3), 0.2% DMSO and in 10 point DR) are included in the experiments.
On the second day, 40µl medium is removed from the cells with the plate washer (Select 405 microplate washer, Biotek). 15 µL of diluted compound series is transferred to the assay plate and cells are infected with 15 µL of HBV mix (HBV virus, 4%PEG, 1%DMSO in assay medium). The infection is performed in assay medium containing final concentration of 1% DMSO. The assay plate is incubated at 37°C, 5% CO2 overnight.
The next day, 30µl compound and HBV mix are removed from the assay plate with the plate washer and 30 µL of compound series diluted 1/500 in assay medium containing final concentration of 2.5% DMSO is added to the cell assay plate. The assay plate is incubated at 37°C, 5% CO2 for 5 days.
After 5 days of incubation, supernatant is removed from the cells with the plate washer. Cells are fixed with 50 µL of 3.7% formaldehyde added with the Well mate (Matrix technologies) and incubated for 30 min at room temperature. After fixation, cells are washed four times with phosphate buffer saline (1xPBS, 137mM NaCl, 10mM na2HPO4, 2.7mM KCl, 1.8mM KH2PO4 at pH7.4). The cells are finally subjected to HBc staining.
First, the assay plate is blocked with blocking buffer (2%FBS, 3% BSA, 0.2% TritonX100 in PBS) for 1 h at room temperature (optional to block overnight at 4°C).
After 4 washes of PBST (1XPBS + 0.05% Tween) with the plate washer, the assay plate is incubated with 30 µL diluted primary antibody (1/700 Rabbit anti-HBV core antigen, Dako, B0586 or 1/350 Rabbit anti HBV core antigen, Invitrogen, PA516368) in blocking buffer and incubated for 90 min at room temperature.
After 4 washes of PBST with the plate washer, the assay plate is incubated with 50 µL of secondary antibody (Donkey-anti-rabbit Alexa 488 antibody, Lifetechnologies A21206) 1/500 diluted in blocking buffer and incubated for 60 min at room temperature and in the dark.
The assay plate is washed 4 times with PBST on the plate washer and incubated with 50µL of DAPI (Sigma D9542, stock 5mg/mL) 1/10000 diluted in PBS for 15-30 min at room temperature and in the dark. The assay plate is now ready for read out on the InCell Analyzer 2200 (GE Healthcare).
Raw data are generated following read-out performed on InCell 2200 and are imported into the galapagos LIMS for automated calculation of percentage inhibition (PIN) and toxicity by nuclei count, using the control wells mentioned above, and creation of Dose Response curves. Table V. Hepg2 NTCP assay activity of illustrative compounds of the invention

First: COc1cc2c(cc1OCC1COCCO1)OC(C(C)C)c1cc(C(=O)O)c(=O)n(C3CC3)c1-2 (stereo not drawn) [Compound 33, 1-cyclopropyl-8-(1,4-dioxan-2-ylmethoxy)-5-isopropyl-9-methoxy-2-oxo-5H-chromeno[4,3-b]pyridine-3-carboxylic acid]
Second: CC(C)C1Oc2cc(OC[C@@H]3COCCO3)c(Cl)cc2-c2c1cc(C(=O)O)c(=O)n2C1CC1 (stereo partly drawn) [Compound 50, 9-chloro-1-cyclopropyl-8-[[(2S)-1,4-dioxan-2-yl]methoxy]-5-isopropyl-2-oxo-5H-chromeno[4,3-b]pyridine-3-carboxylic acid]
The IC50 of the first is higher: 1 to 20 nM for the first, 0.001 to 1 nM for the second.

`COc1cc2c(cc1OCC1COC1)OC(C(C)C)c1cc(C(=O)O)c(=O)n(C3CC3)c1-2` (stereo not drawn) [Compound 34, 1-cyclopropyl-5-isopropyl-9-methoxy-8-(oxetan-3-ylmethoxy)-2-oxo-5H-chromeno[4,3-b]pyridine-3-carboxylic acid] and `CCOc1cc2c(cc1OC)-c1c(cc(C(=O)O)c(=O)n1C1CC1)C(C(C)C)O2` (stereo not drawn) [Compound 37, 1-cyclopropyl-8-ethoxy-5-isopropyl-9-methoxy-2-oxo-5H-chromeno[4,3-b]pyridine-3-carboxylic acid] fall in the same range of IC50: 1 to 20 nM for the first, 1 to 20 nM for the second.

First: COc1cc2c(cc1OCC1CNC(=O)O1)OC(C(C)C)c1cc(C(=O)O)c(=O)n(C3CC3)c1-2 (stereo not drawn) [Compound 35, 1-cyclopropyl-5-isopropyl-9-methoxy-2-oxo-8-[(2-oxooxazolidin-5-yl)methoxy]-5H-chromeno[4,3-b]pyridine-3-carboxylic acid]
Second: CCCOc1cc2c(cc1OC)-c1c(cc(C(=O)O)c(=O)n1C1CC1)C(C(C)C)O2 (stereo not drawn) [Compound 40, 1-cyclopropyl-5-isopropyl-9-methoxy-2-oxo-8-propoxy-5H-chromeno[4,3-b]pyridine-3-carboxylic acid]
The IC50 of the first is higher: 20 to 100 nM for the first, 1 to 20 nM for the second.

`COc1cc2c(cc1OCCCO)OC(C(C)C)c1cc(C(=O)O)c(=O)n(C3CC3)c1-2` (stereo not drawn) [Compound 36, 1-cyclopropyl-8-(3-hydroxypropoxy) -5-isopropyl-9-methoxy-2-oxo-5H-chromeno[4,3-b]pyridine-3-carboxylic acid] and `CCOCCOc1cc2c(cc1OC)-c1c(cc(C(=O)O)c(=O)n1C1CC1)C(C(C)C)O2` (stereo not drawn) [Compound 42, 1-cyclopropyl-8-(2-ethoxyethoxy)-5-isopropyl-9-methoxy-2-oxo-5H-chromeno[4,3-b]pyridine-3-carboxylic acid] fall in the same range of IC50: 1 to 20 nM for the first, 1 to 20 nM for the second.

`COc1cc2c(cc1OCC(C)C)OC(C(C)C)c1cc(C(=O)O)c(=O)n(C3CC3)c1-2` (stereo not drawn) [Compound 38, 1-cyclopropyl-8-isobutoxy-5-isopropyl-9-methoxy-2-oxo-5H-chromeno[4,3-b]pyridine-3-carboxylic acid] and `COc1cc2c(cc1OC(C)C)OC(C(C)C)c1cc(C(=O)O)c(=O)n(C3CC3)c1-2` (stereo not drawn) [Compound 39, 1-cyclopropyl-8-isopropoxy-5-isopropyl-9-methoxy-2-oxo-5H-chromeno[4,3-b]pyridine-3-carboxylic acid] fall in the same range of IC50: 1 to 20 nM for the first, 1 to 20 nM for the second.

Compared with `COc1cc2c(cc1OCc1ccccc1)OC(C(C)C)c1cc(C(=O)O)c(=O)n(C3CC3)c1-2` (stereo not drawn) [Compound 41, 8-benzyloxy-1-cyclopropyl-5-isopropyl-9-methoxy-2-oxo-5H-chromeno[4,3-b]pyridine-3-carboxylic acid], `COc1cc2c(cc1OCC1(C#N)CCC1)OC(C(C)C)c1cc(C(=O)O)c(=O)n(C3CC3)c1-2` (stereo not drawn) [Compound 43, 8-[(1-cyanocyclobutyl)methoxy]-1-cyclopropyl-5-isopropyl-9-methoxy-2-oxo-5H-chromeno[4,3-b]pyridine-3-carboxylic acid] is lower in IC50: greater than 100 nM for the first, 1 to 20 nM for the second. The second is the more potent here.

First: COCCCOc1cc2c(cc1F)-c1c(cc(C(=O)O)c(=O)n1C1CC1)[C@@H](C(C)C)O2 [Compound 45, (5R)-1-cyclopropyl-9-fluoro-5-isopropyl-8-(3-methoxypropoxy)-2-oxo-5H-chromeno[4,3-b]pyridine-3-carboxylic acid]
Second: COCCCOc1cc2c(cc1F)-c1c(cc(C(=O)O)c(=O)n1C1CC1)C(C1(C)COC1)O2 (stereo not drawn) [Compound 49, 1-cyclopropyl-9-fluoro-8-(3-methoxypropoxy) -5-(3-methyloxetan-3-yl)-2-oxo-5H-chromeno[4,3-b]pyridine-3-carboxylic acid]
The IC50 of the first is higher: greater than 100 nM for the first, 0.001 to 1 nM for the second.

`COCCCOc1cc2c(cc1Cl)-c1c(cc(C(=O)O)c(=O)n1C1CCC1)C(C1(C)COC1)O2` (stereo not drawn) [Compound 48, 9-chloro-1-cyclobutyl-8-(3-methoxypropoxy) -5-(3-methyloxetan-3-yl)-2-oxo-5H-chromeno[4,3-b]pyridine-3-carboxylic acid] and `CCOc1cc2c(cc1Cl)-c1c(cc(C(=O)O)c(=O)n1C1CC1)C(C1(C)COC1)O2` (stereo not drawn) [Compound 56, 9-chloro-1-cyclopropyl-8-ethoxy-5-(3-methyloxetan-3-yl)-2-oxo-5H-chromeno[4,3-b]pyridine-3-carboxylic acid] fall in the same range of IC50: 0.001 to 1 nM for the first, 0.001 to 1 nM for the second.

`CC(C)C1Oc2cc(OC[C@H]3COCCO3)c(Cl)cc2-c2c1cc(C(=O)O)c(=O)n2C1CC1` (stereo partly drawn) [Compound 51, 9-chloro-1-cyclopropyl-8-[[(2R)-1,4-dioxan-2-yl]methoxy]-5-isopropyl-2-oxo-5H-chromeno[4,3-b]pyridine-3-carboxylic acid] and `CC(C)C1Oc2cc(OCC3(C)COC3)c(Cl)cc2-c2c1cc(C(=O)O)c(=O)n2C1CC1` (stereo not drawn) [Compound 52, 9-chloro-1-cyclopropyl-5-isopropyl-8-[(3-methyloxetan-3-yl)methoxy]-2-oxo-5H-chromeno[4,3-b]pyridine-3-carboxylic acid] fall in the same range of IC50: 0.001 to 1 nM for the first, 0.001 to 1 nM for the second.

`COCCCOc1cc2c(cc1Cl)-c1c(cc(C(=O)O)c(=O)n1C1CC1)C(C1CCOC1)O2` (stereo not drawn) [Compound 53, 9-chloro-1-cyclopropyl-8-(3-methoxypropoxy) -2-oxo-5-tetrahydrofuran-3-yl-5H-chromeno[4,3-b]pyridine-3-carboxylic acid] and `COCCCOc1cc2c(cc1Cl)-c1c(cc(C(=O)O)c(=O)n1C1CC1)C(C1CCOCC1)O2` (stereo not drawn) [Compound 54, 9-chloro-1-cyclopropyl-8-(3-methoxypropoxy) -2-oxo-5-tetrahydropyran-4-yl-5H-chromeno[4,3-b]pyridine-3-carboxylic acid] fall in the same range of IC50: 0.001 to 1 nM for the first, 0.001 to 1 nM for the second.

`COc1cc2c(cc1Cl)-c1c(cc(C(=O)O)c(=O)n1C1CC1)C(C1(C)COC1)O2` (stereo not drawn) [Compound 55, 9-chloro-1-cyclopropyl-8-methoxy-5-(3-methyloxetan-3-yl)-2-oxo-5H-chromeno[4,3-b]pyridine-3-carboxylic acid] and `[2H]C([2H])([2H])Oc1cc2c(cc1Cl)-c1c(cc(C(=O)O)c(=O)n1C1CC1)C(C1(C)COC1)O2` (stereo not drawn) [Compound 58, 9-chloro-1-cyclopropyl-5-(3-methyloxetan-3-yl)-2-oxo-8-(trideuteriomethoxy)-5H-chromeno[4,3-b]pyridine-3-carboxylic acid] fall in the same range of IC50: 0.001 to 1 nM for the first, 0.001 to 1 nM for the second.

Compared with `CC1(C2Oc3cc(OCC4CC4)c(Cl)cc3-c3c2cc(C(=O)O)c(=O)n3C2CC2)COC1` (stereo not drawn) [Compound 57, 9-chloro-1-cyclopropyl-8-(cyclopropylmethoxy)-5-(3-methyloxetan-3-yl)-2-oxo-5H-chromeno[4,3-b]pyridine-3-carboxylic acid], `O=C(O)c1cc2c(n(C3CC3)c1=O)-c1cc(F)c(F)cc1OC2` [Compound 59, 1-cyclopropyl-8,9-difluoro-2-oxo-5H-chromeno[4,3-b]pyridine-3-carboxylic acid] is higher in IC50: 1 to 20 nM for the first, greater than 100 nM for the second. The first is the more potent here.
